Assay [1] concerns PDZ-domain polypeptide (GST/PDZ fusion protein). The experiment in a line: G assay (G0): biotinylated PL peptide 20 uM binding to immobilized GST/PDZ fusion protein. The note with it: G Assay of Example 3. How it is done:
“G Assay”—Detection of PDZ-Ligand Binding Using Immobilized PDZ-Domain Fusion Polypeptide
In other assays, a GST/PDZ fusion protein is immobilized on a surface (“G” assay). The binding of labeled PL peptide (e.g., as listed in TABLE 8) to this surface is then measured. Typically, the assay is carried out as follows:
(1) A PDZ-domain polypeptide is bound to a surface, e.g. a protein binding surface. In a preferred embodiment, a GST/PDZ fusion protein containing one or more PDZ domains is bound to a polystyrene 96-well plate. […] In some instances, the GST/PDZ fusion protein is bound via an anti-GST antibody that is coated onto the 96-well plate. Adequate binding to the plate can be achieved when: • a. […]
(3) The binding of the biotinylated peptide to the GST/PDZ fusion protein surface can be detected using a variety of methods and detectors known to one of skill in the art. […] The reaction of the HRP and its substrate is terminated by addition of 100 uL per well of 1M sulfuric acid, and the absorbance of each well of the plate is read at 450 nm.
(4) Specific binding of a PL peptide and a PDZ domain polypeptide is determined by comparing the signal from the well(s) in which the PL peptide and PDZ domain polypeptide are combined, with the background signal(s). […]

The target in assay [2] is T1, PDZ protein (GST-PDZ fusion) (Homo sapiens, UniProt Q02410).
T1 construct: made in house; host or cells: E. coli (DH5alpha, BL21 or JM109)
T1 sequence (Q02410 1-837): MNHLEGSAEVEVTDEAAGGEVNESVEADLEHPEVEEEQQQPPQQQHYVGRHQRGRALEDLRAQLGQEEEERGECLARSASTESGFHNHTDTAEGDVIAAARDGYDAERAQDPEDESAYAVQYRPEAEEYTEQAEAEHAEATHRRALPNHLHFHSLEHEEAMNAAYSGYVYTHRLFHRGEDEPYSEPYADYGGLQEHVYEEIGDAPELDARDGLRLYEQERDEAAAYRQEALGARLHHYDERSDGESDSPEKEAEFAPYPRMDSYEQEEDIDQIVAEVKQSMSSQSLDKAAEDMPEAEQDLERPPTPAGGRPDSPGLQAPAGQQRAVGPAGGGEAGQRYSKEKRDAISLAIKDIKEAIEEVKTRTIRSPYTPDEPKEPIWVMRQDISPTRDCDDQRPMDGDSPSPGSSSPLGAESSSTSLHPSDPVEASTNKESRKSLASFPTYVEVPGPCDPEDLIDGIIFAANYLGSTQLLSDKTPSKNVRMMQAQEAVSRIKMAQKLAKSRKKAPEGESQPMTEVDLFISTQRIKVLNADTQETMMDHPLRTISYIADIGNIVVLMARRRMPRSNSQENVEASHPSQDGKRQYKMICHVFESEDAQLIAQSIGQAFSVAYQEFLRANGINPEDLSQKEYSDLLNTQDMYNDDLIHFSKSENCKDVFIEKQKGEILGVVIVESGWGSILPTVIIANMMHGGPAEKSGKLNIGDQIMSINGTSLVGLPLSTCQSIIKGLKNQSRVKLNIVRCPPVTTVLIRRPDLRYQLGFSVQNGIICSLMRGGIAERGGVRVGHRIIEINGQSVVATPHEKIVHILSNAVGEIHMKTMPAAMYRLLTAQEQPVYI
The experiment in a line: G' assay (10 uM PL peptide), results of TABLE 7 and TABLE 12. In kind it is binding. To be noted: PDZ Mint 1, PDZ Domain 2. The gist of the method:
(§1)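 Binding classes derive from A450 nm of bound biotin-tagged PL peptide. A score of 5 needs A450 above 4 in more than two repeats.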

Assay [3] concerns the target T2, PDZ protein (GST-PDZ fusion) (Homo sapiens, UniProt Q9Y2H9).
T2 construct: made in house; host or cells: E. coli (DH5alpha, BL21 or JM109)
The description is as above. It counts as binding. The note with it: PDZ KIAA0973, PDZ Domain 1. The essentials:
as §1

Assay [4] relates to PDZ protein (GST-PDZ fusion). Described as above. In kind it is binding. The essentials:
as §1

For the next assay, the target named is T3, KIAA807 (Homo sapiens, UniProt Q6P0Q8).
T3 construct: made in house; host or cells: E. coli (DH5alpha, BL21 or JM109)
T3 sequence (Q6P0Q8 1104-1192 limits assumed): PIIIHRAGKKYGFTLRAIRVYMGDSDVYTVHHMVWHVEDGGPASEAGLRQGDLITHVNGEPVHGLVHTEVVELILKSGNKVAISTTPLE
The assay is described as follows: G' assay, TABLE 12. It counts as binding. To be noted: A450 nm class of biotinylated PL peptide bound; 0 in conc columns = peptide 10 uM, protein 5 ug/ml. How it is done:
(§2) The third column labeled “Peptide Optimal Concentration” in the tables is a number reflective of the binding interaction between the PL protein and PDZ protein. […] The column labeled “Protein Optimal Concentration” refers to the protein concentration used to assay PL interaction (in ug/ml); a ‘0’ is indicative of 5 ug/ml protein concentration; any other value represents the concentration (in ug/ml) used to determine the dissociation constant for a given interaction.
(§3) Finally, the seventh column labeled “Classification” is another measure of the level of binding. In particular, it provides an absorbance value at 450 nm which indicates the amount of PL peptide bound to the PDZ protein. The following numerical values have the following meanings: ‘1’—A450 nm 0-1; ‘2’—A450 nm 1-2; ‘3’—A450 nm 2-3; ‘4’—A450 nm 3-4; ‘5’—A450 nm of 4 more than 2× repeated; ‘0’—A450 nm 0, i.e., not found to interact. Thus, higher numbers indicate stronger interactions.
(§4) For convenience, the assay conditions described in this section are referred to as the “G′ assay” and the “G″ assay,” with the specific conditions described in the preceding section on G assays being referred to as the “G^0 assay.” The “G′ assay” is identical to the “G^0 assay” except at step (2) the peptide concentration is 10 uM instead of 20 uM. […] Correspondingly, it slightly increases the certainty that detected interactions are of sufficient affinity and half-life to be of biological importance and useful therapeutic targets.

Another assay deals with T4, Mint 1 (PDZ Domain 1, 2) (Homo sapiens, UniProt Q02410).
T4 construct: When more than one PDZ domain was cloned, the DNA portion cloned represents the PDZ domains and the cDNA portion located between individual domains; made in house; host or cells: E. coli (DH5alpha, BL21 or JM109)
T4 sequence (Q02410 652-828 limits assumed): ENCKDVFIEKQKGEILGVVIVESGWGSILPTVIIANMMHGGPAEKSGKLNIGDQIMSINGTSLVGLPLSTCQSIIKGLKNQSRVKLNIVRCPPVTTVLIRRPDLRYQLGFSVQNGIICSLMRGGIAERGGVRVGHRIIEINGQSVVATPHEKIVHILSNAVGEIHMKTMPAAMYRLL
The experiment in a line: G' assay, TABLE 12. It counts as binding. The note with it: A450 nm class of biotinylated PL peptide bound; 0 in conc columns = peptide 10 uM, protein 5 ug/ml. How it is done: as §2, §3, §4

For assay [5], the target named is T5, KIAA0807(S) (PDZ Domain 1) (Homo sapiens, UniProt Q6P0Q8).
T5 construct: made in house; host or cells: E. coli (DH5alpha, BL21 or JM109)
T5 sequence (Q6P0Q8 with tags, fused parts or gaps): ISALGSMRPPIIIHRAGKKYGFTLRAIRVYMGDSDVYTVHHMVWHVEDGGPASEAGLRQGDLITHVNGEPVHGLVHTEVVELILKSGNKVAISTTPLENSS
The assay is described as follows: G' assay and Kd titration, TABLE 12. It counts as binding. The note with it: A450 nm class of biotinylated PL peptide bound; 0 in conc columns = peptide 10 uM, protein 5 ug/ml. The procedure: as §2, §3
For convenience, the assay conditions described in this section are referred to as the “G′ assay” and the “G″ assay,” with the specific conditions described in the preceding section on G assays being referred to as the “G^0 assay.” The “G′ assay” is identical to the “G^0 assay” except at step (2) the peptide concentration is 10 uM instead of 20 uM.

Assay [6] concerns the target T6, PDZ protein (GST-PDZ fusion) (Homo sapiens, UniProt O14907).
T6 construct: made in house; host or cells: E. coli (DH5alpha, BL21 or JM109)
T6 sequence (O14907 1-124): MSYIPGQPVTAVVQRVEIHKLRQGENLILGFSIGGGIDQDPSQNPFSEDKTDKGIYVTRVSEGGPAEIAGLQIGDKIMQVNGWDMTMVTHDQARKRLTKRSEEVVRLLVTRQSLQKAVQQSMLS
The assay is described as follows: G' assay (10 uM PL peptide), results of TABLE 7 and TABLE 12. In kind it is binding. The note with it: PDZ TIP1, PDZ Domain 1. The gist of the method:
as §1

Ends that are not written are not given here. * marks the point of attachment. Biotin = O=C1N[C@H]2[C@H](CS[C@H]2CCCCC(=O)*)N1

T2 sequence (Q9Y2H9 whole entry, the tested form may be a part): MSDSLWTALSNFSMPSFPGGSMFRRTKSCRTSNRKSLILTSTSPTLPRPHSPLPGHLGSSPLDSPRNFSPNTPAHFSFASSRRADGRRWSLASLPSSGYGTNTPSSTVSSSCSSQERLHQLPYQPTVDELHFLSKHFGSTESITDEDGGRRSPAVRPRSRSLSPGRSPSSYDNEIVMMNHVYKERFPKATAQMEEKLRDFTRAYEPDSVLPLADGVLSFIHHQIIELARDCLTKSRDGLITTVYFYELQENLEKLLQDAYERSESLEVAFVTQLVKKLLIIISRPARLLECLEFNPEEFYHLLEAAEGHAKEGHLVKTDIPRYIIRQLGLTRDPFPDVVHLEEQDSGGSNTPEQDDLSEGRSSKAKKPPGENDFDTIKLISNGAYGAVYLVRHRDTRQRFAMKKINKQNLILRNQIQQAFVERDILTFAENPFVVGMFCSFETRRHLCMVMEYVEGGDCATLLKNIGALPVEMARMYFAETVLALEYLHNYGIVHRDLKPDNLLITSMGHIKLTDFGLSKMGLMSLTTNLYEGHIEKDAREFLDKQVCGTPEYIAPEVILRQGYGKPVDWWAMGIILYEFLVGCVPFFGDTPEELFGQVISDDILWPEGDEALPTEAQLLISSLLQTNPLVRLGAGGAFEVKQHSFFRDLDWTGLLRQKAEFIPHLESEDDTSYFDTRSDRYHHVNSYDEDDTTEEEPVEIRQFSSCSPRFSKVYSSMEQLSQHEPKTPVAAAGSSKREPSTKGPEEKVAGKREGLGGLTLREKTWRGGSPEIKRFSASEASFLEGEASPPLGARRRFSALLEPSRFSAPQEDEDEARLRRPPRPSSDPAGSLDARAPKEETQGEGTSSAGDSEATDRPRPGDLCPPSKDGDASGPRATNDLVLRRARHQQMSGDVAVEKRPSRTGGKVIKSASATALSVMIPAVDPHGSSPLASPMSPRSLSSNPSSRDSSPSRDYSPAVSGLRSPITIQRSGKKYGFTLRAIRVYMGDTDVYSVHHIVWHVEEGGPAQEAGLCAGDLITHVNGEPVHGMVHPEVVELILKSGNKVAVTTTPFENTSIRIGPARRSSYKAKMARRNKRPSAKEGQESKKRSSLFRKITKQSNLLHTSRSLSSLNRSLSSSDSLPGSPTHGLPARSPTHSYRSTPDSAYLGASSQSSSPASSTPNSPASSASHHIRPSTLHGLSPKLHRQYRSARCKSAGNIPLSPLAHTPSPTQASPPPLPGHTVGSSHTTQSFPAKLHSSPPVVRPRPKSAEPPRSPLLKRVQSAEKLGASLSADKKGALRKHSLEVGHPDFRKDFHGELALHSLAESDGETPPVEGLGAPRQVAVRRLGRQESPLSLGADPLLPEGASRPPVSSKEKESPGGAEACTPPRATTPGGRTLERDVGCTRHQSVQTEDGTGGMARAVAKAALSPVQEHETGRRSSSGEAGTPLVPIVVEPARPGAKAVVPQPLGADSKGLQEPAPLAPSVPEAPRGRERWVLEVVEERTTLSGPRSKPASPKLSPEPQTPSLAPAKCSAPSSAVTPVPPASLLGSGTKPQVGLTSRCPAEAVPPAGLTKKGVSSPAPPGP

As for “HAMNAAPRAMENAPALRTSH (Biotin-HAMNAAPRAMENAPALRTSH) [HPV E6 57]”, in assay [1], the “binding of E6 C-terminal peptides to a variety of PDZ domains” value is on record as “did not bind any of the PDZ domains tested”.
Take “KKGTYLTDETHREVKFTSL (Biotin-KKGTYLTDETHREVKFTSL) [CD46]”: the Classification in assay [2] is on record as 1 (A450 nm 0-1); in assay [3], 2 (A450 nm 1-2); in assay [4] (PDZ BAI-1, PDZ Domain 5), 1 (A450 nm 0-1); in the assay with KIAA807, 4 (A450 nm 3-4); in the assay with Mint 1 (PDZ Domain 1, 2), 1 (A450 nm 0-1); in assay [5] it was 5 (A450 nm of 4 more than 2× repeated). For the same sequence, the “PDZ proteins bound by the PL (TABLE 7)” value in assay [4] (as cited in the text from TABLE 7) is recorded as “KIAA0973, Mint 1, KIAA807, BAI-1, KIA0807(S)”.
On to GGGRGSGLAGGSRGGGQSRQ [HPV E6 77], for which the “binding of E6 C-terminal peptides to a variety of PDZ domains” value in assay [1] is listed as “did not bind any of the PDZ domains tested”. In addition, the Classification in assay [6] is recorded as 0 (A450 nm 0, i.e., not found to interact); in assay [4] (PDZ BAI-1, PDZ Domain 2), 0 (A450 nm 0, i.e., not found to interact).

These data come from patent US20050282743A1, “Molecular interactions in cells” (Arbor Vita Corporation, priority 2001, published 2005).
